Results: patent publication US10131693B2, “Bipodal-peptide binder” (GWANGJU INSTITUTE OF SCIENCE AND TECHNOLOGY, priority 2008, dated 2018)
Residues, ends and D or L forms follow the SMILES beside them.

Target: T1, fibronectin ED-B (Homo sapiens, UniProt P02751)
T1 construct: After transformation of pET28b vector carrying fibronectin ED-B into BL21 cells; His-tag (N); made in house; host or cells: E. coli BL21 (pET28b)
Assay: SPR (Biacore) affinity measurement to fibronectin ED-B
Type: binding
Experimental: Bipodal-peptide binder peptides specific to ED-B, VEGF or nAchR which were repetitively found in DNA sequencing were synthesized from Anigen Inc. (Korea). Affinity was measured using BlAcore X instrument (Biacore AB, Uppsala, Sweden). ED-B and nAchR were immobilized on streptavidin (SA) chip (Biacore) by injecting 2,000 RU biotinylated-EDB. VEGF was immobilized on CM5 chip (Biacore) using EDC/NHS. PBS (pH 7.4) was used as a running buffer. […].
. In addition to tryptophan zipper, GB1m3 and HP7 peptide as a type of other β-hairpin backbones were synthesized to contain N-terminal sequence (HCSSAV) and C-terminal sequence (IIRLEQ) of peptide 2 which is specifically bound to ED-B (Anigen, Korea). In other words, the sequence of bipodal-peptide binder in tryptophan zipper is […] (SEQ ID NO:21), and in GB1m3and HP7 are […] (SEQ ID NO:63) and […] (SEQ ID NO:64), respectively. Affinity of each peptide was measured using BIAcore X (Biacore AB, Uppsala, Sweden). […]
A leucine zipper motif as a structure stabilizing region instead of β-hairpin structure was synthesized to contain N-terminal sequence (HCSSAV) and C-terminal sequence (IIRLEQ) of peptide 2 which is specifically bound to ED-B, producing two peptides, […] […] Both peptides were formed as dimer, and their affinities were measured using BlAcore X (Biacore AB, Uppsala, Sweden). […]

T1 sequence (P02751 1271-1359 limits assumed): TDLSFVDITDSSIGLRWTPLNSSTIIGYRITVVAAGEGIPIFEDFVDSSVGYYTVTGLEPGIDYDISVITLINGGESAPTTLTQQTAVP

CC[C@H](C)[C@H](NC(=O)CNC(=O)[C@H](CCCCN)NC(=O)[C@H](Cc1c[nH]c2ccccc12)NC(=O)[C@@H](NC(=O)[C@H](Cc1c[nH]c2ccccc12)NC(=O)[C@H](CCCCN)NC(=O)CNC(=O)[C@H](CC(N)=O)NC(=O)[C@H](CCC(=O)O)NC(=O)[C@H](Cc1c[nH]c2ccccc12)NC(=O)[C@@H](NC(=O)[C@H](Cc1c[nH]c2ccccc12)NC(=O)[C@H](CO)NC(=O)CNC(=O)[C@@H](NC(=O)[C@H](C)NC(=O)[C@H](CO)NC(=O)[C@H](CO)NC(=O)[C@H](CS)NC(=O)[C@@H](N)Cc1c[nH]cn1)C(C)C)[C@@H](C)O)[C@@H](C)O)C(=O)N[C@H](C(=O)N[C@@H](CCCNC(=N)N)C(=O)N[C@@H](CC(C)C)C(=O)N[C@@H](CCC(=O)O)C(=O)N[C@@H](CCC(N)=O)C(=O)O)[C@@H](C)CC [Peptide 2 (fibronectin ED-B)] (H-HCSSAVGSWTWENGKWTWKGIIRLEQ-OH; N-terminus and C-terminus assumed)
Kd: 43 nM
